molecular target: 5'-nucleotidase (Homo sapiens, UniProt P21589); assay: Inhibition of human recombinant Ecto-5'-nucleotidase
Sequence (P21589 whole entry): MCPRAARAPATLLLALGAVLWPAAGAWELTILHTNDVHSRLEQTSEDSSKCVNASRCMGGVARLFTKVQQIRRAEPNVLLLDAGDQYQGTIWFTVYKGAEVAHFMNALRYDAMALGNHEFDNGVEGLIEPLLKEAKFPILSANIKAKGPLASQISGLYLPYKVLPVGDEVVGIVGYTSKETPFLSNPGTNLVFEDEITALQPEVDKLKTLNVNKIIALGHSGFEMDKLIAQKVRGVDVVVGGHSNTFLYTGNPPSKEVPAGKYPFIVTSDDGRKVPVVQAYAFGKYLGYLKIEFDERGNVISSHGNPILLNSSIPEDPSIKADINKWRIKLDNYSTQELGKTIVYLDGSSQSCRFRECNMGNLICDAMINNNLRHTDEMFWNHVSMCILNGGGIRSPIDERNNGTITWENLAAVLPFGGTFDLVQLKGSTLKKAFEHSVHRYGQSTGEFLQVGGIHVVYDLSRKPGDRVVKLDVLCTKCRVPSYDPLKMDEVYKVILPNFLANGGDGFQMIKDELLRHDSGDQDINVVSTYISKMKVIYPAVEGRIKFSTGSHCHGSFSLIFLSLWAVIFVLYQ

IC50, > 0.1 nM:
N#Cc1ccc(-n2nccc2-c2ccc3nnn(-c4cccc(O)c4)c3c2)cc1, O=S(=O)(c1ccc(-c2nn[nH]c2-c2cc3c(-c4cccc(O)c4)nnc-3co2)cc1Br)C(F)(F)F, CC1NC(n2nnc3ccc(-c4ccnn4-c4ccc(C#N)cc4)cc32)CCS1 (stereo not drawn), O=S(=O)(c1ccc(-n2nccc2-c2ccc3nnn(-c4ccc5cn[nH]c5c4)c3c2)c(Br)c1)C(F)(F)F, O=S(=O)(c1ccc(-c2nsnc2-c2cc3c(-c4cccc(O)c4)nnc-3co2)cc1Br)C(F)(F)F, N#Cc1ccc(-c2ncsc2-c2cc3c(-c4ccc5cn[nH]c5c4)nnc-3co2)cc1, Cc1nc(-c2ccnn2-c2ccc(C#N)cc2)nc2cc(-c3ccc4cn[nH]c4c3)cnc12, O=S(=O)(c1ccc(-n2nccc2-c2ccc3nnn(-c4ccc5cn[nH]c5c4)c3c2)cc1Br)C(F)(F)F
